Results taken from US20060019907A1, “Guggulsterone: an inhibitor of nuclear factor - kappaB and IkappaBalpha kinase activation and uses thereof” (Research Development Foundation, priority 2004, published 2006).

How the values were obtained:
NF-κB proteins = biological target: T1, NF-κB proteins (Homo sapiens, UniProt P19838+Q04206); experiment: DNA binding of NF-κB in nuclear extracts incubated with guggulsterone (EMSA); assay type: biochemical; conditions: nuclear extracts from TNF-activated H1299 cells treated with guggulsterone 4 hours at room temperature
T1 construct: endogenous in cells; nuclear extract
T1 sequence (Q04206 whole entry): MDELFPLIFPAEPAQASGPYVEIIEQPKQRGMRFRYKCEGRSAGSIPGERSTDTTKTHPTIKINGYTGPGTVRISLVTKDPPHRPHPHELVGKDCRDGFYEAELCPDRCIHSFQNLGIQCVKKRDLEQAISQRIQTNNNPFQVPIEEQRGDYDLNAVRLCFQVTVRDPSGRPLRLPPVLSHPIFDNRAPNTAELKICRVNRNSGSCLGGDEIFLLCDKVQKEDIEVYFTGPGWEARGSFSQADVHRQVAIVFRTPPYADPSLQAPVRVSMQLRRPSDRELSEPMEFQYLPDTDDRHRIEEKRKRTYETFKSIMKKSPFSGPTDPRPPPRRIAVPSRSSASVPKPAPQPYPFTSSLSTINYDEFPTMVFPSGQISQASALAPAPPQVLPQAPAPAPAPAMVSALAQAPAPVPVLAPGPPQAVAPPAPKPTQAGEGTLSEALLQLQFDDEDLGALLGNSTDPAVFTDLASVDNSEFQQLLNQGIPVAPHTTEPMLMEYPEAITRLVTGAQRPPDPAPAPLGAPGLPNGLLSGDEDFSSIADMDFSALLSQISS
T1 sequence (P19838 1-433 limits assumed): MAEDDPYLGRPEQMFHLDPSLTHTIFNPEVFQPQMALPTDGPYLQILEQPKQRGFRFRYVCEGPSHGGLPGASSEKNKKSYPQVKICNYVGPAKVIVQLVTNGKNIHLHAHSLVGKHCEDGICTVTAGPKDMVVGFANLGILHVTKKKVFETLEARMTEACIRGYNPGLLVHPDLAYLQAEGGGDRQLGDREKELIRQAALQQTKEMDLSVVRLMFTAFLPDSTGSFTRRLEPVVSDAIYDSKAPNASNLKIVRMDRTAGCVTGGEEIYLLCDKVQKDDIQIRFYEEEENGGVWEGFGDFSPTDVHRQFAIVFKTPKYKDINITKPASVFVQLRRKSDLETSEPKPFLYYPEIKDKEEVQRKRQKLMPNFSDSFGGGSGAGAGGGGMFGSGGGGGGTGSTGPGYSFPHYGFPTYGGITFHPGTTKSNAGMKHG
Procedure: NF-κB Activation: To determine NF-κB activation, EMSA was carried out as previously described (Chaturvedi et al., 2000). Briefly, nuclear extracts prepared from cells (2×10^6/ml) treated with TNF were incubated with ^32P-end-labeled 45-mer double-stranded NF-κB oligonucleotide (8 μg of protein with […] of DNA) from the human immunodeficiency virus long terminal repeat, 5′-[…] GGCGTGG-3′ (SEQ ID NO:1) (boldface indicates NF-κB binding sites), for 15 min at 37° C. The DNA-protein complex formed was separated from free oligonucleotide on 6.6% native polyacrylamide gels. A double-stranded mutated oligonucleotide, 5′-[…]-3′ (SEQ ID NO:2), was used to examine the specificity of binding of NF-κB to the DNA. The specificity of binding was also examined by competition with the unlabeled oligonucleotide. For supershift assays, nuclear extracts prepared from TNF-treated cells were incubated with antibodies against either the p50 or the p65 subunit of NF-κB for 30 min at room temperature before the complex was analyzed by EMSA. The dried gels were visualized, and radioactive bands were quantitated using a PHOSPHORIMAGER™ (Molecular Dynamics, Sunnyvale, Calif.) using IMAGEQUANT™ software. […]

IKK [1] = experiment: TNF-induced IKK activation, immune complex kinase assay; assay type: cell-based, human; conditions: H1299
Procedure: (§1) IKK Assay: To determine the effect of guggulsterone on TNF-induced IKK activation, IKK was analyzed by a method essentially as described previously (Shishodia et al., 2003). Briefly, IKK complex was precipitated from whole-cell extracts with antibody to IKKα and IKKβ, assayed in kinase assay using GST-IκBα (1-54) as a substrate, and resolved on 10% polyacrylamide gel; the radioactive bands were visualized using a PHOSPHORIMAGER™. To determine the total amounts of IKKα and IKKβ in each sample, 30 μg of the whole-cell extract protein was resolved on a 7.5% polyacrylamide gel and analyzed by Western blot using antibody against IKKα and IKKβ.

IKK [2] = experiment: Direct inhibition of immunoprecipitated IKK, kinase assay; assay type: biochemical, human; conditions: 50 μM; immune complex treated 30 min at 30° C.
Procedure: as §1

NF-κB = experiment: NF-κB-dependent reporter gene (SEAP) transcription; assay type: cell-based, human
Procedure: NF-κB-dependent Reporter Gene Transcription: The effect of guggulsterone on TNF-induced NF-κB dependent reporter gene transcription was measured as previously described (Manna et al., 2000). Briefly, H1299 cells (5×10^5 cells/well) were plated in six-well plates and transiently transfected the next day by LIPOFECTAMINETM 2000 method with pNF-κB-SEAP using the manufacturer's protocol. To examine TNF-induced reporter gene expression, cells was transfected with 2 μg of the SEAP expression plasmid. After 18 hours, medium was removed, cells were rinsed and treated with various doses of guggulsterone for 4 hours and then treated with TNF. Twenty four hours later, the cell culture medium was harvested and analyzed for alkaline phosphatase (SEAP) activity essentially according to the protocol described by the manufacturer (Clontech, Palo Alto, Calif.) using a 96-well fluorescence plate reader ([…]; Labsystems, Chicago, Ill.) with excitation set at 360 nm and emission set at 460 nm.

IκBα = experiment: RANKL-induced IκBα phosphorylation and degradation, Western blot; assay type: cell-based, mouse; conditions: RAW 264.7
Procedure: Western blot analysis. To determine the levels of protein expression in the cytoplasm or nucleus, extracts were prepared (Majumder and Aggarwal, 2001) and fractionated by SDS-polyacrylamide gel electrophoresis (PAGE). After electrophoresis, the proteins were electrotransferred to nitrocellulose membranes, blotted with each antibody, and detected by ECL regent (Amersham, Piscataway, N.J.). The bands obtained were quantitated using NIH imaging software (NIH, Bethesda, Md.).

IKK [3] = experiment: RANKL-induced IKK activity, IKK assay; assay type: cell-based, mouse; conditions: RAW 264.7
Akt = Akt activation in U937 cells, Western blot; assay type: cell-based, human; conditions: 10 μM
Procedure: Western blot analysis. Thirty to fifty micrograms of cytoplasmic, nuclear or whole cell protein was resolved on 10% SDS-PAGE gel, transferred to a nitrocellulose membrane, blocked with 5% non-fat milk, and probed with specific antibodies as per manufacturer's recommended protocol. The blots were washed, exposed to HRP-conjugated secondary antibodies for 1 h, and detected by ECL reagent (Amersham Pharmacia Biotechnology, Piscataway, N.J.). The bands were quantitated using a Personal Densitometer Scan v1.30 using Imagequant software version 3.3 (Molecular Dynamics).

STAT3 = experiment: IL-6-inducible STAT3 phosphorylation in RPMI 8226 cells, Western blot; assay type: cell-based, human
Procedure: Western blot. For detection of STAT proteins, whole-cell extracts were prepared by lysing the guggulsterone-treated cells in lysis buffer (20 mM Tris, pH 7.4, 250 mM NaCl, 2 mM EDTA, pH 8.0, 0.1% Triton −X100, 0.01 mg/ml aprotinin, 0.005 mg/ml leupeptin, 0.4 mM PMSF, and 4 mM NaVO4). Lysates were then spun at 14,000 rpm for 10 min to remove insoluble material, and resolved on a 7.5% gel. After electrophoresis, the proteins were electrotransferred to a nitrocellulose membrane, blocked with 5% nonfat milk, and probed with anti-STAT antibodies (1:1000) overnight at 4° C. The blot was washed, exposed to HRP-conjugated secondary antibodies for 1 h, and finally examined by chemiluminescence (ECL, Amersham Pharmacia Biotech. Arlington Heights, Ill.).

[4] = system: inducible nitric oxide synthetase (iNOS); conditions: Meselhy et al., 2003; cited from earlier work
[5] = humans; cited from earlier work
[6] = 50 μM, 4 h pre-incubation, 10 nM RANKL

In the case of `CC=C1C(=O)C[C@H]2[C@@H]3CCC4=CC(=O)CC[C@]4(C)[C@H]3CC[C@]12C` [guggulsterone, 4,17(20)-pregnadiene-3,16-dione], the “DNA-binding ability of NF-κB proteins” value (NF-κB proteins) is reported as “did not modify the DNA-binding ability of NF-κB proteins”, the “TNF-induced IKK activation” value (IKK [1]; 50 μM, 4 h, 0.1 nM TNF) is reported as “completely suppressed this activation” and the “expression of IKKα and IKKβ proteins” value (IKK [1]; whole cell extracts, immunoblot) is reported as “had no direct effect on the expression of either IKKα”. For the same compound, the “phosphorylation of GST IκBα by immunoprecipitated IKK (direct inhibition)” value (IKK [2]) was “inhibited the phosphorylation of GST IκBα”, the “NF-κB-dependent SEAP expression induced by TNFR, TRADD, NIK and IKKβ plasmids” value (NF-κB; H1299, 50 μM, 4 hours) was “suppressed reporter gene expression induced by TNFR, TRADD, NIK and IKKβ plasmids” and the “NF-κB-dependent SEAP expression induced by p65 plasmid” value (NF-κB; H1299, 50 μM, 4 hours) was “had no effect on that induced by p65”. For the same compound, the “TNF-induced NF-κB-dependent SEAP expression” value (NF-κB; H1299 cells, 0.1 nM TNF 24 hours) was “inhibited by guggulsterone in a dose-dependent manner”, the “phosphorylation of IκBα by GS alone” value (IκBα) was “did not result in phosphorylation of IκBα” and the “RANKL-induced IκBα degradation” value (IκBα; [6]) was “suppressed RANKL-induced IκBα degradation”. For the same compound, the “RANKL-induced phosphorylation of IκBα” value (IκBα; [6]) was “eliminated the RANKL-induced phosphorylation”, the “expression of IκBα (IκBα to β-actin ratio)” value (IκBα; GS treatment) was “down-regulates the expression of IκBα” and the “RANKL-induced IKK activity (phosphorylation of GST-IκBα)” value (IKK [3]; [6]) was “could not phosphorylate GST-IκBα upon RANKL treatment”. For the same compound, the “expression of IKK-α and IKK-β” value (IKK [3]; Western blot) was “did not alter the expression of IKK-α and IKK-β”, the Akt activation (Akt) was “suppression of Akt-activation” and the “exposure time sufficient to completely suppress IL-6-induced STAT3 phosphorylation” value (STAT3; 25 μM) was 4 h. The “IL-6-induced STAT3 phosphorylation” value (STAT3; 25 μM, IL-6 10 ng/ml 10 min) was “blocked by guggulsterone in a time-dependent manner”, the “STAT3 phosphorylation by guggulsterone alone” value (STAT3; data not shown) was “had no effect on STAT3 phosphorylation” and the “iNOS expression induced by LPS in macrophages” value [4] was “inhibiting inducible nitric oxide synthetase (iNOS) expression”. The pharmacological safety [5] was “pharmacologically safe agent in humans”.
